Assay [1] deals with T1, Melanocortin receptor 3 (Homo sapiens, UniProt P41968). The assay can be described thus: Agonist activity at human MC3R transfected in HEK293T cells co-transfected with GScAMP22F assessed as increase in cAMP level. Particulars: HEK293, filed as agonist. Type of assay: functional, cell-based.
The target of assay [2] is Melanocortin receptor 4 (Homo sapiens) (UniProt P32245). The assay can be described thus: Agonist activity at human MC4R transfected in HEK293T cells co-transfected with GScAMP22F assessed as increase in cAMP level. It counts as functional, cell-based. Particulars: HEK293, filed as agonist. In general terms: Changes in cAMP serve as a functional read-out for many G protein-coupled receptors.

Assay [3] addresses T1, Melanocortin receptor 3. In words: Antagonist activity at human MC3R transfected in HEK293T cells co-transfected with GScAMP22F assessed as inhibition of alpha-MSH-indued cAMP production. Type of assay: functional, cell-based. Particulars: HEK293, filed as antagonist.
Assay [4] deals with Melanocortin receptor 4 (Homo sapiens) (UniProt P32245). The assay can be described thus: Antagonist activity at human MC4R transfected in HEK293T cells co-transfected with GScAMP22F assessed as inhibition of alpha-MSH-indued cAMP production. It counts as functional, cell-based. Particulars: HEK293, filed as antagonist.
In assay [5] the target is Melanocyte-stimulating hormone receptor (Homo sapiens) (UniProt Q01726). The assay can be described thus: Agonist activity at human MC1R transfected in HEK293 cells co-transfected with GScAMP22F assessed as increase in cAMP level by split luciferase cAMP sensor dynamic assay relative to control. Type of assay: functional, cell-based.
Assay [6] addresses Melanocortin receptor 5 (Homo sapiens) (UniProt P33032). The assay can be described thus: Agonist activity at human MC5R transfected in HEK293 cells co-transfected with GScAMP22F assessed as increase in cAMP level by split luciferase cAMP sensor dynamic assay relative to control. It counts as functional, cell-based.
Assay [7] addresses T1, Melanocortin receptor 3. The assay can be described thus: Agonist activity at human MC3R transfected in HEK293 cells assessed as cAMP accumulation by split-luciferase assay.

Molecules are shown by their SMILES. pEC50: −log10 of the molar value. The source made the active and inactive calls. The rule behind the calls is not given here. Positions of bridges follow the written chain, without caps; N, C: chain ends. Non-standard residues stand in square brackets, D forms with d. Residues, ends and D or L forms follow the SMILES beside them. d2Nal = N[C@H](Cc1ccc2ccccc2c1)C(=O)O; Nle = CCCC[C@H](N)C(=O)O Bounds are passed on as bounds.

The values that follow come from ChEMBL document CHEMBL5154855 (J Med Chem, 2022).

T1 sequence (P41968 whole entry): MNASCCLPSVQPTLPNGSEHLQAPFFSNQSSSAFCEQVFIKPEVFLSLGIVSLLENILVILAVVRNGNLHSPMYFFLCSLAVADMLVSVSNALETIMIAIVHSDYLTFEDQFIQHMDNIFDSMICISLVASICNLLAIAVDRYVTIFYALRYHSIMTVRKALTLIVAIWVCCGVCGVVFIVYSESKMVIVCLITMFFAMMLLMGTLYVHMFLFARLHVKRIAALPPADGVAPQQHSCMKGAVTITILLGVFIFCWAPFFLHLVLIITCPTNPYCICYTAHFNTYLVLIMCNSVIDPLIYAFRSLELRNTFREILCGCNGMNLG
Chain of Melanocortin receptor 4 (Homo sapiens) (P32245 whole entry): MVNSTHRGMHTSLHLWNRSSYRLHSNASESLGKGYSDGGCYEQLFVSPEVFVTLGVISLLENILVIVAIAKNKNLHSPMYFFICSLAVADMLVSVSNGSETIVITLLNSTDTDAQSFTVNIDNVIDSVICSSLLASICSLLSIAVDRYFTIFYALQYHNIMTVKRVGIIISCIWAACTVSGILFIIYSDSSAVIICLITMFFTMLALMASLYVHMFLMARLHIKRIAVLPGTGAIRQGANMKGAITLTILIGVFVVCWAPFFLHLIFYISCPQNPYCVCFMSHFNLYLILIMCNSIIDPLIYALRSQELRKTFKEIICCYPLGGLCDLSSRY
Chain of Melanocyte-stimulating hormone receptor (Homo sapiens) (Q01726 whole entry, looked up): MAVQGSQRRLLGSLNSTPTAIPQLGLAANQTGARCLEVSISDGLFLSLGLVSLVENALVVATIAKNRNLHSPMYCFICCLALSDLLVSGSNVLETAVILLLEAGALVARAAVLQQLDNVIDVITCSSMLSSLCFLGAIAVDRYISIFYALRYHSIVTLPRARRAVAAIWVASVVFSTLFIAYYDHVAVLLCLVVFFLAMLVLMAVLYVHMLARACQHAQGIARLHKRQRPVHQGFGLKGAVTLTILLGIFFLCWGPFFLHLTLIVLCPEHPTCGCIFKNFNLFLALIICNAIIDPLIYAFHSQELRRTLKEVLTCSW
Chain of Melanocortin receptor 5 (Homo sapiens) (P33032 whole entry): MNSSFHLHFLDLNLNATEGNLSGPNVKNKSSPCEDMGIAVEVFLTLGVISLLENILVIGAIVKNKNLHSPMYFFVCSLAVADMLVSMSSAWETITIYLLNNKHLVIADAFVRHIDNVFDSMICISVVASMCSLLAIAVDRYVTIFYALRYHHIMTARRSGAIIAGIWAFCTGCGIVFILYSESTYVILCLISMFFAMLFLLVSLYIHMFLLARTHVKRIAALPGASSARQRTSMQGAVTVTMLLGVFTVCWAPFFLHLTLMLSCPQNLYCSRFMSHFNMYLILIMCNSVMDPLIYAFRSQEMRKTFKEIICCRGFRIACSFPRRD

`CCCC[C@H](N)C(=O)N[C@H]1CC(=O)NCCCC[C@@H](C(N)=O)NC(=O)[C@H](Cc2c[nH]c3ccccc23)N(C)C(=O)[C@H](CCCNC(=N)N)NC(=O)[C@@H](Cc2ccccc2)NC(=O)[C@@H]2CCCN2C1=O`: the outcome in assay [1] and in assay [2] was Active. `CCCC[C@H](NC(=O)[C@@H](NC(=O)[C@@H](N)Cc1ccc(O)cc1)C(C)C)C(=O)NCC(=O)N[C@@H](Cc1cnc[nH]1)C(=O)N[C@@H](Cc1ccccc1)C(=O)N[C@@H](CCCNC(=N)N)C(=O)N[C@H](Cc1c[nH]c2ccccc12)C(=O)N[C@@H](CC(=O)O)C(=O)N[C@@H](CCCNC(=N)N)C(=O)N[C@@H](Cc1ccccc1)C(=O)NCC(=O)O`: in assay [2], the outcome was Active. In the case of `CCCC[C@H](NC(=O)[C@@H](NC(=O)[C@@H](N)Cc1ccc(O)cc1)C(C)C)C(=O)NCC(=O)N[C@@H](Cc1cnc[nH]1)C(=O)N[C@H](Cc1ccc2ccccc2c1)C(=O)N[C@@H](CCCNC(=N)N)C(=O)N[C@H](Cc1c[nH]c2ccccc12)C(=O)N[C@@H](CC(=O)O)C(=O)N[C@@H](CCCNC(=N)N)C(=O)N[C@@H](Cc1ccccc1)C(=O)NCC(=O)O`, the outcome in assay [3] and in assay [4] was Active. In the case of `CC(=O)N[C@@H](CCCNC(=N)N)C(=O)N[C@H]1CSSC[C@@H](C(N)=O)NC(=O)[C@H](Cc2c[nH]c3ccccc23)NC(=O)[C@H](CCCNC(=N)N)NC(=O)[C@@H](Cc2ccccc2)NC(=O)[C@H](Cc2c[nH]cn2)NC(=O)[C@@H](C)NC1=O`, the result in assay [1] and in assay [2] was Active. As a reminder, the Emax is the greatest response seen or fitted, relative to the assay's reference. With `CCCC[C@H](NC(C)=O)C(=O)N[C@H]1CC(=O)NCCCC[C@@H](C(N)=O)NC(=O)[C@H](Cc2c[nH]c3ccccc23)NC(=O)[C@H](CCCNC(=N)N)NC(=O)[C@@H](Cc2ccc3ccccc3c2)NC(=O)[C@@H]2CCCN2C(=O)[C@@H]2CCCN2C1=O` (Ac-[Nle]DPP[d2Nal]RWK-NH2; lactam 2-8), the Emax in assay [5] was less than 10%. `CCCC[C@H](NC(=O)[C@@H](NC(=O)[C@@H](N)Cc1ccc(O)cc1)C(C)C)C(=O)NCC(=O)N1CCC[C@H]1C(=O)N[C@H](Cc1ccc2ccccc2c1)C(=O)N[C@@H](CCCN=C(N)N)C(=O)N[C@@H](Cc1c[nH]c2ccccc12)C(=O)N[C@@H](CC(=O)O)C(=O)N[C@@H](CCCN=C(N)N)C(=O)N[C@@H](Cc1ccccc1)C(=O)NCC(N)=O` (H-YV[Nle]GP[d2Nal]RWDRFG-NH2): the Emax in assay [6] is less than 10%.

As for `CC(=O)N[C@@H](CCCNC(=N)N)C(=O)N[C@@H]1CSSC[C@H](C(N)=O)NC(=O)[C@H](Cc2c[nH]c3ccccc23)NC(=O)[C@H](CCCNC(=N)N)NC(=O)[C@@H](Cc2ccc3ccccc3c2)NC(=O)[C@H](Cc2c[nH]cn2)NC(=O)[C@@H](C)NC1=O`, the outcome in assay [3] and in assay [4] was Active. In general, pEC50 refers to the negative decadic logarithm of the EC50, by convention in mol/L. For `CCCC[C@H](NC(=O)[C@@H](NC(=O)[C@@H](N)Cc1ccc(O)cc1)C(C)C)C(=O)NCC(=O)N[C@@H](Cc1c[nH]cn1)C(=O)N[C@H](Cc1ccc2ccccc2c1)C(=O)N[C@@H](CCCN=C(N)N)C(=O)N[C@@H](Cc1c[nH]c2ccccc12)C(=O)N[C@@H](CC(=O)O)C(=O)N[C@@H](CCCN=C(N)N)C(=O)N[C@@H](Cc1ccccc1)C(=O)NCC(N)=O`, the pEC50 in assay [7] was less than 5.00.
